Data taken from the supplement of paper PMC13207355.

Columns and labels:
Conditions in all cases: exposure time: 72 h
E13 [1] = patient-derived glioblastoma stem cells of classical subtype; assay: surviving fraction (nuclei count normalised to DMSO); higher = more cells surviving (less toxic)
E21 [2] = patient-derived glioblastoma stem cells of mesenchymal subtype; assay: as above
E28 [3] = patient-derived glioblastoma stem cells of classical subtype; assay: as above
E31 [4] = patient-derived glioblastoma stem cells of proneural subtype; assay: as above
E34 [5] = patient-derived glioblastoma stem cells of proneural subtype; assay: as above
E57 [6] = patient-derived glioblastoma stem cells of mesenchymal subtype; assay: as above
FT3469 [7] = normal neural stem cell line; assay: as above
E13 [8] = assay: phenotypic distance (Euclidean, principal components) from DMSO controls (arbitrary units); higher = stronger morphological change
E21 [9] = assay: as above
E28 [10] = assay: as above
E31 [11] = assay: as above
E34 [12] = assay: as above
E57 [13] = assay: as above
FT3469 [14] = assay: as above
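Wherever phenotypic distance (Euclidean, principal components) from DMSO controls is given: cell Painting imaging in 384-well plates, CellProfiler features reduced to at least 20 principal components, Euclidean distance versus same-plate DMSO vehicle wells (0.1% v/v), median over six images per well.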
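Wherever surviving fraction (nuclei count normalised to DMSO) is given: nuclei counted by high-content imaging of Hoechst-stained cells in laminin-coated 384-well plates, relative to 0.1% DMSO vehicle wells, with staurosporine as cell-death control.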

Nc1ccn([C@@H]2O[C@H](CO)[C@@H](O)[C@@H]2O)c(=O)n1 [Cytarabine]
Conditions | phenotypic distance | surviving fraction
E13 [1], 4.1 nM | – | 0.893
E13 [1], 12.3 nM | – | 0.843
E13 [1], 37 nM | – | 0.673
E13 [1], 111.1 nM | – | 0.645
E13 [1], 333.3 nM | – | 0.42
E13 [1], 1000 nM | – | 0.448
E13 [1], 3000 nM | – | 0.389
E13 [8], 4.1 nM | 0.95 | –
E13 [8], 12.3 nM | 1.36 | –
E13 [8], 37 nM | 1.77 | –
E13 [8], 111.1 nM | 2.69 | –
E13 [8], 333.3 nM | 4.49 | –
E13 [8], 1000 nM | 4.63 | –
E13 [8], 3000 nM | 4.85 | –
E21 [2], 4.1 nM | – | 0.787
E21 [2], 12.3 nM | – | 0.77
E21 [2], 37 nM | – | 0.649
E21 [2], 111.1 nM | – | 0.533
E21 [2], 333.3 nM | – | 0.339
E21 [2], 1000 nM | – | 0.236
E21 [2], 3000 nM | – | 0.154
E21 [9], 4.1 nM | 1.63 | –
E21 [9], 12.3 nM | 2.01 | –
E21 [9], 37 nM | 2.73 | –
E21 [9], 111.1 nM | 3.44 | –
E21 [9], 333.3 nM | 4.54 | –
E21 [9], 1000 nM | 4.75 | –
E21 [9], 3000 nM | 5.65 | –
E28 [3], 4.1 nM | – | 0.778
E28 [3], 12.3 nM | – | 0.775
E28 [3], 37 nM | – | 0.542
E28 [3], 111.1 nM | – | 0.586
E28 [3], 333.3 nM | – | 0.474
E28 [3], 1000 nM | – | 0.511
E28 [3], 3000 nM | – | 0.333
E28 [10], 4.1 nM | 1.71 | –
E28 [10], 12.3 nM | 1.24 | –
E28 [10], 37 nM | 1.72 | –
E28 [10], 111.1 nM | 2.6 | –
E28 [10], 333.3 nM | 2.45 | –
E28 [10], 1000 nM | 2.47 | –
E28 [10], 3000 nM | 3.27 | –
E31 [4], 4.1 nM | – | 0.861
E31 [4], 12.3 nM | – | 0.637
E31 [4], 37 nM | – | 0.463
E31 [4], 111.1 nM | – | 0.312
E31 [4], 333.3 nM | – | 0.149
E31 [4], 1000 nM | – | 0.127
E31 [4], 3000 nM | – | 0.126
E31 [11], 4.1 nM | 1.02 | –
E31 [11], 12.3 nM | 1.8 | –
E31 [11], 37 nM | 1.75 | –
E31 [11], 111.1 nM | 3.19 | –
E31 [11], 333.3 nM | 3.48 | –
E31 [11], 1000 nM | 3.7 | –
E31 [11], 3000 nM | 4.49 | –
E34 [5], 4.1 nM | – | 0.892
E34 [5], 12.3 nM | – | 0.803
E34 [5], 37 nM | – | 0.723
E34 [5], 111.1 nM | – | 0.687
E34 [5], 333.3 nM | – | 0.555
E34 [5], 1000 nM | – | 0.514
E34 [5], 3000 nM | – | 0.466
E34 [12], 4.1 nM | 1.44 | –
E34 [12], 12.3 nM | 1.82 | –
E34 [12], 37 nM | 2.13 | –
E34 [12], 111.1 nM | 3.16 | –
E34 [12], 333.3 nM | 3.2 | –
E34 [12], 1000 nM | 3.33 | –
E34 [12], 3000 nM | 3.62 | –
E57 [6], 4.1 nM | – | 0.687
E57 [6], 12.3 nM | – | 0.62
E57 [6], 37 nM | – | 0.443
E57 [6], 111.1 nM | – | 0.316
E57 [6], 333.3 nM | – | 0.179
E57 [6], 1000 nM | – | 0.179
E57 [6], 3000 nM | – | 0.161
E57 [13], 4.1 nM | 2.41 | –
E57 [13], 12.3 nM | 3.28 | –
E57 [13], 37 nM | 4.72 | –
E57 [13], 111.1 nM | 6.26 | –
E57 [13], 333.3 nM | 7.13 | –
E57 [13], 1000 nM | 6.77 | –
E57 [13], 3000 nM | 6.62 | –
FT3469 [7], 4.1 nM | – | 0.758
FT3469 [7], 12.3 nM | – | 0.684
FT3469 [7], 37 nM | – | 0.654
FT3469 [7], 111.1 nM | – | 0.753
FT3469 [7], 333.3 nM | – | 0.684
FT3469 [7], 1000 nM | – | 0.553
FT3469 [7], 3000 nM | – | 0.62
FT3469 [14], 4.1 nM | 1.13 | –
FT3469 [14], 12.3 nM | 1.74 | –
FT3469 [14], 37 nM | 1.5 | –
FT3469 [14], 111.1 nM | 1.8 | –
FT3469 [14], 333.3 nM | 2.13 | –
FT3469 [14], 1000 nM | 1.94 | –
FT3469 [14], 3000 nM | 1.69 | –

CN(C)C(=O)Oc1ccc[n+](C)c1 [Pyridostigmine iodide]
Conditions | phenotypic distance | surviving fraction
E13 [1], 4.1 nM | – | 1.02
E13 [1], 12.3 nM | – | 1.15
E13 [1], 37 nM | – | 1.04
E13 [1], 111.1 nM | – | 0.975
E13 [1], 333.3 nM | – | 1.06
E13 [1], 1000 nM | – | 1.03
E13 [1], 3000 nM | – | 0.989
E13 [8], 4.1 nM | 0.653 | –
E13 [8], 12.3 nM | 0.436 | –
E13 [8], 37 nM | 0.527 | –
E13 [8], 111.1 nM | 0.34 | –
E13 [8], 333.3 nM | 0.667 | –
E13 [8], 1000 nM | 0.894 | –
E13 [8], 3000 nM | 1.1 | –
E21 [2], 4.1 nM | – | 0.969
E21 [2], 12.3 nM | – | 1.03
E21 [2], 37 nM | – | 1.08
E21 [2], 111.1 nM | – | 0.887
E21 [2], 333.3 nM | – | 0.981
E21 [2], 1000 nM | – | 0.99
E21 [2], 3000 nM | – | 1.04
E21 [9], 4.1 nM | 0.939 | –
E21 [9], 12.3 nM | 0.565 | –
E21 [9], 37 nM | 0.637 | –
E21 [9], 111.1 nM | 0.901 | –
E21 [9], 333.3 nM | 3.46 | –
E21 [9], 1000 nM | 1.09 | –
E21 [9], 3000 nM | 1.02 | –
E28 [3], 4.1 nM | – | 1.07
E28 [3], 12.3 nM | – | 0.975
E28 [3], 37 nM | – | 1.02
E28 [3], 111.1 nM | – | 1.05
E28 [3], 333.3 nM | – | 0.949
E28 [3], 1000 nM | – | 1.18
E28 [3], 3000 nM | – | 0.96
E28 [10], 4.1 nM | 0.458 | –
E28 [10], 12.3 nM | 0.757 | –
E28 [10], 37 nM | 0.73 | –
E28 [10], 111.1 nM | 0.63 | –
E28 [10], 333.3 nM | 0.567 | –
E28 [10], 1000 nM | 0.651 | –
E28 [10], 3000 nM | 0.684 | –
E31 [4], 4.1 nM | – | 0.967
E31 [4], 12.3 nM | – | 1.05
E31 [4], 37 nM | – | 0.914
E31 [4], 111.1 nM | – | 1.02
E31 [4], 333.3 nM | – | 1.07
E31 [4], 1000 nM | – | 0.944
E31 [4], 3000 nM | – | 0.851
E31 [11], 4.1 nM | 0.409 | –
E31 [11], 12.3 nM | 0.507 | –
E31 [11], 37 nM | 0.601 | –
E31 [11], 111.1 nM | 0.878 | –
E31 [11], 333.3 nM | 0.996 | –
E31 [11], 1000 nM | 2.91 | –
E31 [11], 3000 nM | 0.798 | –
E34 [5], 4.1 nM | – | 1.17
E34 [5], 12.3 nM | – | 0.894
E34 [5], 37 nM | – | 1.01
E34 [5], 111.1 nM | – | 0.914
E34 [5], 333.3 nM | – | 0.904
E34 [5], 1000 nM | – | 1.05
E34 [5], 3000 nM | – | 1.24
E34 [12], 4.1 nM | 0.578 | –
E34 [12], 12.3 nM | 0.331 | –
E34 [12], 37 nM | 1.86 | –
E34 [12], 111.1 nM | 0.616 | –
E34 [12], 333.3 nM | 0.79 | –
E34 [12], 1000 nM | 0.731 | –
E34 [12], 3000 nM | 0.846 | –
E57 [6], 4.1 nM | – | 1.16
E57 [6], 12.3 nM | – | 1.04
E57 [6], 37 nM | – | 0.923
E57 [6], 111.1 nM | – | 0.99
E57 [6], 333.3 nM | – | 0.98
E57 [6], 1000 nM | – | 1.01
E57 [6], 3000 nM | – | 0.937
E57 [13], 4.1 nM | 0.948 | –
E57 [13], 12.3 nM | 0.52 | –
E57 [13], 37 nM | 0.595 | –
E57 [13], 111.1 nM | 0.71 | –
E57 [13], 333.3 nM | 0.854 | –
E57 [13], 1000 nM | 0.982 | –
E57 [13], 3000 nM | 0.881 | –
FT3469 [7], 4.1 nM | – | 1.01
FT3469 [7], 12.3 nM | – | 1.12
FT3469 [7], 37 nM | – | 1.2
FT3469 [7], 111.1 nM | – | 1.07
FT3469 [7], 333.3 nM | – | 1.12
FT3469 [7], 1000 nM | – | 1.06
FT3469 [7], 3000 nM | – | 1.15
FT3469 [14], 4.1 nM | 0.42 | –
FT3469 [14], 12.3 nM | 0.709 | –
FT3469 [14], 37 nM | 0.762 | –
FT3469 [14], 111.1 nM | 0.872 | –
FT3469 [14], 333.3 nM | 0.927 | –
FT3469 [14], 1000 nM | 0.794 | –
FT3469 [14], 3000 nM | 1.39 | –
